Like-named read-outs stand apart in the source and are kept apart here. Square brackets hold non-standard residues; d marks the D form. Peptide text beside a SMILES is read from it. * marks the point of attachment. Sta = CC(C)C[C@H](N)[C@@H](O)CC(=O)O; Isovaleryl = CC(C)CC(=O)*
Molecular target: T1, Lsp from E. coli (Escherichia coli, UniProt P00804)
T1 construct: The full-length Lsp clone from E. coli (residues 1-164); His6 with enterokinase cleavage site (pET19b) (N); made in house; host or cells: E. coli Lemo21 (DE3), pET19b vector
T1 sequence (P00804 whole entry, the tested form may be a part): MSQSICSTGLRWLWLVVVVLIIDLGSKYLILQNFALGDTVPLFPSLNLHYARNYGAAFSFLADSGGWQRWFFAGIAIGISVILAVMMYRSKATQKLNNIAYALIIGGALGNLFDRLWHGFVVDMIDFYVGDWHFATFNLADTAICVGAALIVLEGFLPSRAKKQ
Assay: Lsp FRET activity assay, IC50 determination
Format: biochemical
Protocol: […] […] 50 μM Lsp FRET substrate was subsequently added and the rate of substrate hydrolysis was measured by increase in fluorescence (excitation 355 nm, emission 495 nm) in 96-well plates on a PerkinElmer EnVision plate reader or Tecan Safire 2 microplate reader. Michaelis-Menten constants and […] were determined using GraphPad Prism software (GraphPad, Inc.).

[1] = FRET-based assay, [Lsp] = 400 nM, mean (± SD), read-out: IC50
[2] = Table 2, variation of R3, read-out: IC50
[3] = Table 7, linker variation, E = 100 nM, read-out: IC50
[4] = FRET-based assay, [Lsp] = 100 nM, mean (± SD), read-out: IC50
[5] = Table 5, [Lsp] = 20 nM, read-out: IC50
[6] = Table 5, E = 100 nM, read-out: IC50

## CCC(CC)c1nnc(NC(=O)c2cc(OC)c(OC)cc2[N+](=O)[O-])s1 [1a, 4,5-dimethoxy-2-nitro-N-(5-(pentan-3-yl)-1,3,4-thiadiazol-2-yl)benzamide]
[1]
  IC50: 4.2 µM
[2]
  IC50: 4.2 ± 1 µM
Biochemical analysis
  manner of Lsp inhibition: non-competitive

## COc1cc(C(=O)Nc2nnc(C(C)(C)C)s2)c([N+](=O)[O-])cc1OC [Sk061-69-3]
[2]
  IC50: 36 µM

## CCC(CC)c1nnc(NC(=O)c2cc(Cl)c(OCCNC(=O)OC(C)(C)C)cc2[N+](=O)[O-])s1 [Sk061-68]
[3]
  IC50: 0.21 µM

## CCOC(=O)Cc1nnc(NC(=O)c2cc(OC)c(OC)cc2[N+](=O)[O-])s1 [Sk052-27-2]
[2]
  IC50: 78 µM

## CCC(CC)c1nnc(NC(=O)c2cc(OC)c(OC(C)C)cc2[N+](=O)[O-])s1 [1i, 4-isopropoxy-5-methoxy-2-nitro-N-(5-(pentan-3-yl)-1,3,4-thiadiazol-2-yl)benzamide]
  effect on cleaved substrate fluorescence: no effect
[4]
  IC50: 0.21 µM
[S]=50 μM, [Lsp]=100 nM
  Hill constant: approximately 1

## CCCCOc1cc([N+](=O)[O-])c(C(=O)Nc2nnc(C(CC)CC)s2)cc1OC [1g, 4-butoxy-5-methoxy-2-nitro-N-(5-(pentan-3-yl)-1,3,4-thiadiazol-2-yl)benzamide]
[4]
  IC50: 0.54 µM

## CCC(CC)c1nnc(NC(=O)c2ccccc2CC(=O)OC)s1 [Sk056-82-1]
Table 4, read-out: IC50
  IC50: 21 µM

## CCOc1cc([N+](=O)[O-])c(C(=O)Nc2nnc(C(CC)CC)s2)cc1OC [1f, 4-ethoxy-5-methoxy-2-nitro-N-(5-(pentan-3-yl)-1,3,4-thiadiazol-2-yl)benzamide]
[1]
  IC50: 1.2 µM

## COCCCOc1cc(C[C@@H](C[C@H](N)[C@@H](O)C[C@H](C(=O)NCC(C)(C)C(N)=O)C(C)C)C(C)C)ccc1OC [aliskiren, reference compound]
  inhibition of E. coli Lsp by known aspartic acid protease inhibitors: no known aspartic acid protease inhibitors

## COc1cc(C(=O)Nc2nnc(C3CCCCC3)s2)c([N+](=O)[O-])cc1OC [Sk052-56]
[2]
  IC50: > 400 µM

## COc1cc(C(=O)Nc2ccc(C(C)C)nc2)c([N+](=O)[O-])cc1OC [Sk056-82-4]
Table 3, read-out: IC50
  IC50: > 400 µM

## CCC(CC)c1nnc(NC(=O)c2ccccc2[N+](=O)[O-])s1 [Sk054-91-1]
Table 4, read-out: IC50
  IC50: 11 ± 3 µM

## CCC(CC)c1nnc(NC(=O)c2cc(Cl)c(OCCCNC(=O)OC(C)(C)C)cc2[N+](=O)[O-])s1 [Sk061-80-1]
[3]
  IC50: 1.7 µM

## CCC(CC)c1nnc(NC(=O)c2cc(OS(=O)(=O)F)ccc2[N+](=O)[O-])s1 [Sk054-144]
  IC50: 65 µM

## CCC(CC)c1nnc(NC(=O)c2cc(Cl)c(SC3CCCC3)cc2[N+](=O)[O-])s1 [Sk056-22-1]
[5]
  IC50: 0.02 µM

## O=S(=O)(N[C@H](CO)C(C(F)(F)F)C(F)(F)F)c1ccc(Cl)s1 [begacestat, reference compound]
  inhibition of E. coli Lsp by known aspartic acid protease inhibitors: no known aspartic acid protease inhibitors

## COC(=O)CCc1nnc(NC(=O)c2cc(OC)c(OC)cc2[N+](=O)[O-])s1 [Sk052-147-3]
[2]
  IC50: > 200 µM

## CCC(CC)c1nnc(NC(=O)c2cc(Cl)c(OCCCCNC(=O)OC(C)(C)C)cc2[N+](=O)[O-])s1 [Sk061-80-2]
[3]
  IC50: 1.6 µM

## CCC(CC)c1nnc(NC(=O)c2c(Cl)cccc2[N+](=O)[O-])s1 [Sk056-82-2]
Table 4, read-out: IC50
  IC50: 260 µM

## CCC(CC)c1nnc(NC(=O)c2cc(Cl)c(OCCCCCCNC(=O)OC(C)(C)C)cc2[N+](=O)[O-])s1 [Sk061-54]
[6]
  IC50: ~2.3 µM
[3]
  IC50: 2.3 µM

## CCCCCc1nnc(NC(=O)c2cc(OC)c(OC)cc2[N+](=O)[O-])s1 [Sk052-147-2]
[2]
  IC50: 26 µM

## CCCCCCOc1cc([N+](=O)[O-])c(C(=O)Nc2nnc(C(CC)CC)s2)cc1OC [1h, 4-(hexyloxy)-5-methoxy-2-nitro-N-(5-(pentan-3-yl)-1,3,4-thiadiazol-2-y)benzamide]
[4]
  IC50: 0.11 µM

## CCC(CC)c1nnc(NC(=O)c2ccc(F)cc2[N+](=O)[O-])s1 [Sk054-91-3]
Table 4, read-out: IC50
  IC50: 7.2 µM

## CCC(CC)c1nnc(NC(=O)c2ccc(NC(C)=O)cc2[N+](=O)[O-])s1 [Sk054-112-2]
Table 4, read-out: IC50
  IC50: 160 µM

## CCC(CC)c1nnc(NC(=O)c2ccc(OC)cc2N)s1 [Sk054-142]
Table 4, read-out: IC50
  IC50: 11 µM

## CCC(CC)c1nnc(NC(=O)c2cc(Cl)c(Oc3ccccc3)cc2[N+](=O)[O-])s1 [Sk056-22-2]
[5]
  IC50: 0.19 µM

## CC(C)(C)NC(=O)[C@@H]1C[C@@H]2CCCC[C@@H]2CN1C[C@@H](O)[C@H](Cc1ccccc1)NC(=O)[C@H](CC(N)=O)NC(=O)c1ccc2ccccc2n1 [saquinavir, reference compound]
  inhibition of E. coli Lsp by known aspartic acid protease inhibitors: no known aspartic acid protease inhibitors

## CCC(CC)c1nnc(NC(=O)c2ccc(OC)cn2)s1 [Sk054-91-2]
Table 4, read-out: IC50
  IC50: > 400 µM

## CC(C)CC(=O)N[C@H](C(=O)N[C@H](C(=O)N[C@@H](CC(C)C)[C@@H](O)CC(=O)N[C@@H](C)C(=O)N[C@@H](CC(C)C)[C@@H](O)CC(=O)O)C(C)C)C(C)C [pepstatin, reference compound] (Isovaleryl-VV[Sta]A[Sta]-OH)
  inhibition of E. coli Lsp by known aspartic acid protease inhibitors: no known aspartic acid protease inhibitors

## CCCc1nnc(NC(=O)c2cc(OC)c(OC)cc2[N+](=O)[O-])s1 [Sk054-141-2]
[2]
  IC50: 26 µM

## CCC(CC)c1nnc(NC(=O)c2ccc(C(F)(F)F)cc2[N+](=O)[O-])s1 [Z123635394]
Table 4, read-out: IC50
  IC50: 9.3 µM

## CCCCC(CC)c1nnc(NC(=O)c2cc(OC)c(OC)cc2[N+](=O)[O-])s1 (stereo not shown) [Sk061-69-4]
[2]
  IC50: 2.5 µM

## CCC(CC)c1nnc(NC(=O)c2ccc(NCCS(=O)(=O)F)cc2[N+](=O)[O-])s1 [Sk056-45-3]
  IC50: 19 µM

## CCC(CC)c1nnc(NC(=O)c2cc(Cl)c(NC3CCCC3)cc2[N+](=O)[O-])s1 [Sk056-16-1]
[5]
  IC50: 0.17 µM

## COc1cc(C(=O)Nc2ccc(C(C)C)cn2)c([N+](=O)[O-])cc1OC [Sk056-82-3]
Table 3, read-out: IC50
  IC50: > 400 µM

## COc1cc(C(=O)Nc2nnc(C3CC3)s2)c([N+](=O)[O-])cc1OC [Sk052-147-1]
[2]
  IC50: 208 µM

## COc1cc(C(=O)Nc2nnc(CCc3ccccc3)s2)c([N+](=O)[O-])cc1OC [Sk052-88-2]
[2]
  IC50: 20 µM

## CC(C)[C@H](O)C(=O)N[C@@H](C)C(=O)N[C@@H]1C(=O)N(C)CCc2ccccc21 [semagacestat, reference compound]
  inhibition of E. coli Lsp by known aspartic acid protease inhibitors: no known aspartic acid protease inhibitors

## CCCC(CCC)c1nnc(NC(=O)c2cc(OC)c(OC)cc2[N+](=O)[O-])s1 [Sk052-88-1]
[2]
  IC50: 1.1 µM

## CCC(CC)c1nnc(NC(=O)c2cc(Cl)c(Oc3ccc(N)cc3)cc2[N+](=O)[O-])s1 [Sk061-32]
[6]
  IC50: ~4 µM

## CCC(C)c1nnc(NC(=O)c2cc(OC)c(OC)cc2[N+](=O)[O-])s1 (stereo not shown) [Sk061-69-2]
[2]
  IC50: 8.7 µM

## COC(=O)CCSCCCCCc1nnc(NC(=O)c2cc(Cl)c(OC3CCCC3)cc2[N+](=O)[O-])s1 [Sk056-26]
Table 6, read-out: IC50
  IC50: 3.2 µM

## COC(=O)N[C@H](C(=O)N[C@@H](Cc1ccccc1)[C@@H](O)CN(Cc1ccc(-c2ccccn2)cc1)NC(=O)[C@@H](NC(=O)OC)C(C)(C)C)C(C)(C)C [atazaniavir, reference compound]
  inhibition of E. coli Lsp by known aspartic acid protease inhibitors: no known aspartic acid protease inhibitors

## CCC(CC)c1nnc(NC(=O)c2cc(Cl)c(OC3CCCN(C(=O)OC(C)(C)C)C3)cc2[N+](=O)[O-])s1 (stereo not shown) [Sk061-80-5]
[3]
  IC50: 0.83 µM

## N-(5-buty-1,3,4-oxadiazol-2-yl)-4,5-dimethoxy-2-nitrobenzamide [1e]
  potency against Lsp, in words (SAR): inactive
[1]
  IC50: > 400 µM

## CCC(CC)c1nnc(NC(=O)c2cc(OC)ccc2[N+](=O)[O-])s1 [Sk052-146-1]
Table 4, read-out: IC50
  IC50: 3.6 µM

Source: patent publication US20200181101A1, “BENZAMIDE INHIBITORS OF BACTERIAL LIPOPROTEIN SIGNAL PEPTIDASE” (The Scripps Research Institute, priority 2017, published 2020)
